In PubChem BioAssay AID651862 (Vanderbilt Specialized Chemistry Center, 2012):
Active and inactive are the calls of the source.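 Rule for the calls: active = tubulin-normalized E-cadherin at least double the DMSO level by western blot, or significantly raised by in-cell western; inactive = the rest.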

Tested on: SW620/H520 cells, E-cadherin In-Cell Western
Assay: E-cadherin expression restoration, SW620 and H520 cells, In-Cell Western (AID 651862)

Row | EC50 | SMILES
1 | 2.22 µM | O=C(NCCCNC(=O)c1ccc[nH]c1=O)c1cc(-c2ccccc2)on1
2 | 3.13 µM | N#Cc1ccc(NCCCNC(=O)c2cc(-c3ccccc3)on2)nc1
3 | 3.82 µM | O=C(NCCNC(=O)c1nccs1)c1cc(-c2ccccc2)on1
4 | 2.55 µM | [N-]=[N+]=Nc1nccc(NCCCNC(=O)c2cc(-c3ccccc3)on2)n1
5 | 12 µM (inactive) | O=C(NCCCNCc1cnoc1)c1cc(-c2ccccc2)on1
6 | 4.56 µM | O=C(NCCCNCc1ccc(O)c(O)c1)c1cc(-c2ccccc2)on1
